# Key:
# Assay in all cases: Cell growth inhibition, CellTiter-Glo, 72 h
# Type in all cases: cell-based
# 22RV1 cells = conditions: Homo sapiens, 72 h culture, mean of N=2
# Summary of the method: (§1)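 Cells seeded at 5×10^3/well in RPMI-1640 with 10% FBS, compound added next day at 0.5% DMSO final, 72 h at 37°C. CellTiter-Glo luminescence read; % inhibition normalised to 0.5% DMSO (0%) and 1% Tween 20 (100%), plotted against concentration in nM; mean ± SEM, N=2.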
# MM1S cells = conditions: Homo sapiens, MM1.S, 72 h culture, mean of N=2
# Summary of the method: as §1
# OPM-2 cells = conditions: Homo sapiens, 72 h culture, mean of N=2
# Summary of the method: as §1
# vCap cells = conditions: Homo sapiens, 72 h culture, mean of N=2
# Summary of the method: as §1
SMILES,IC50 (22RV1 cells) [nM],IC50 (MM1S cells) [nM],IC50 (OPM-2 cells) [nM],IC50 (vCap cells) [nM]
"CC(=O)N1Cc2cc([C@H]3CC[C@H](CN4Cc5cc6c(cc5C4)C(=O)N(C4CCC(=O)NC4=O)C6=O)CC3)cc(N3CCCc4cc(-c5cnn(C)c5)c(C(F)F)cc43)c2C1 (relative stereo) [Compound 2083, 6-(((1r,4r)-4-(2-acetyl-7-(7-(difluoromethyl)-6-(1-methyl-1H-pyrazol-4-yl)-3,4-dihydroquinolin-1(2H)-yl)isoindolin-5-yl)cyclohexyl)methyl)-2-(2,6-dioxopiperidin-3-yl)-6,7-dihydropyrrolo[3,4-f]isoindole-1,3(2H,5H)-dione]",> 10000,35,13,58
"C=CS(=O)(=O)N[C@H]1CC[C@H](n2nc(N3CCCc4cc(-c5cnn(C)c5)c(C(F)F)cc43)c3c2CCN(C(=O)NC)C3)CC1 [Compound 1374, 3-(7-(difluoromethyl)-6-(1-methyl-1H-pyrazol-4-yl)-3,4-dihydroquinolin-1(2H)-yl)-N-methyl-1-((1r,4r)-4-(vinylsulfonamido)cyclohexyl)-1,4,6,7-tetrahydro-5H-pyrazolo[4,3-c]pyridine-5-carboxamide]",11,1,1,1
"CC(=O)N1Cc2cc([C@H]3CC[C@@H](CN4Cc5cc6c(cc5C4)C(=O)N(C4CCC(=O)NC4=O)C6=O)CC3)cc(N3CCCc4cc(-c5cnn(C)c5)c(C(F)F)cc43)c2C1 (relative stereo) [Compound 2082, 6-(((1s,4s)-4-(2-acetyl-7-(7-(difluoromethyl)-6-(1-methyl-1H-pyrazol-4-yl)-3,4-dihydroquinolin-1(2H)-yl)isoindolin-5-yl)cyclohexyl)methyl)-2-(2,6-dioxopiperidin-3-yl)-6,7-dihydropyrrolo[3,4-f]isoindole-1,3(2H,5H)-dione]",47,25,4,13
CNC(=O)N1CCc2c(c(N3CCCc4cc(-c5cnn(C)c5)c(C(F)F)cc43)nn2C2CCOCC2)C1 [GNE-781],4240,104,8,2150
"C=CS(=O)(=O)N[C@H]1CC[C@H](n2nc(N3CCCc4cc(-c5cnn(C)c5)c(C(F)F)cc43)c3c2CCN(C(C)=O)C3)CC1 [Compound 1387, N-((1r,4r)-4-(5-acetyl-3-(7-(difluoromethyl)-6-(1-methyl-1H-pyrazol-4-yl)-3,4-dihydroquinolin-1(2H)-yl)-4,5,6,7-tetrahydro-1H-pyrazolo[4,3-c]pyridin-1-yl)cyclohexyl)ethenesulfonamide]",18,3,1,3
CC(=O)N1Cc2cc([C@H]3CC[C@H](NC(=O)CCl)CC3)cc(N3CCCc4cc(-c5cnn(C)c5)c(C(F)F)cc43)c2C1 [Compound 1362],51,3,2,6
"C=CS(=O)(=O)N1CCC(n2nc(N3CCCc4cc(-c5cnn(C)c5)c(C(F)F)cc43)c3c2CCN(C(=O)NC)C3)CC1 [Compound 1369, 3-(7-(difluoromethyl)-6-(1-methyl-1H-pyrazol-4-yl)-3,4-dihydroquinolin-1(2H)-yl)-N-methyl-1-(1-(vinylsulfonyl)piperidin-4-yl)-1,4,6,7-tetrahydro-5H-pyrazolo[4,3-c]pyridine-5-carboxamide]",4,1,0.4,1
CNC(=O)N1CCc2cc(C3CCN(C(=O)CCCCCCCCNc4ccc5c(c4)n(C)c(=O)n5C4CCC(=O)NC4=O)CC3)cc(N3CCCc4cc(-c5cnn(C)c5)c(C(F)F)cc43)c2C1 (centres unmarked) [Compound 2018],0.01,0.1,0.05,< 0.005
